Measured values: patent US20050130881A1, “Single amino acid based compounds for counteracting effects of reactive oxygen species and free radicals” (priority 2001, published 2005)

Columns and labels:
CAT [1] = assay: Upregulation of CAT in primary rat cortical cultures (Western immunoblot, laser densitometry); assay type: cell-based; conditions: for Upregulation (fold increase) CAT: 5 hours, relative to untreated control cultures
Protocol: [The source words this procedure for another target and reports this target under the same test.] (§1) Primary rat cortical cultures were obtained by growing newborn rat brain cortical cells in Delbecco's modified Eagle medium supplemented with 100 units/ml of penicillin G, 100 μg/ml of streptomycin, and 10% fetal calf serum. The cells were isolated from the E-21 cortex of rat brain, plated at a density of 1×10^5 per ml and grown to confluence within four to five days in an atmosphere containing air and 5% CO2 at 37° C. as described in Cornell-Bell et al., Science, 247: 470-473 (1990) and Cell Calcium, 12: 185-204 (1991). Cultures were grown in 20 ml flasks as a monolayer and then exposed to various concentrations of L-aspartic acid for studies of the effect on upregulation of the gene for SOD. Cultures of the rat brain cortical cells were incubated with 0.00, 0.01, 0.13, 1.30, and 13.30 μg/ml L-aspartic acid for durations of 5 hours. Control cultures were treated in the same manner, but were not incubated with L-aspartic acid.
(§2) Cytoplasmic proteins were isolated according to published methods (Adams et al., J. Leukoc. Biol., 62: 865-873 (1997)). The cell cultures were washed once in phosphate buffer saline (PBS) containing 20 mM EDTA and then suspended in 250 μl of freshly prepared lysis buffer (20 mM Hepes, pH 7.9, 10 mM KCl, 300 mM NaCl, 1 mM MgCl2, 0.1% Triton X-100 nonionic detergent, 20% glycerol, 0.5 mM dithiothreitol (DTT), freshly supplemented with inhibitors as described in Adams et al., […]., 77: 221-233 (2000)). The suspensions were then incubated for at least 10 minutes on ice to lyse cells and then centrifuged (14,000×g for 5 minutes at 4° C.) to pellet cell debris. The supernatant cytoplasmic fractions were removed and stored as aliquots at −80° C. for analysis.
(§3) The cytoplasmic proteins were separated by SDS-PAGE using 5 μg/lane on the gels for analysis by Western immunoblots. […] SOD expression was detected in the Western blots using anti-SOD rabbit polyclonal antibody (Rockland, Inc., Gilbertville, Pa.). The Western blots were also analyzed by laser densitometry to quantify SOD protein upregulation. The control in these experiments was an identical culture flask, which was treated only with vehicle (i.e., buffer, no L-aspartic acid).

SOD [2] = assay: In vivo upregulation of SOD in rat brain (Western immunoblot); set-up: species or system Sprague-Dawley rats; conditions: for Fold Upregulation of SOD: relative to vehicle
Protocol: (§4) In vivo experiments were carried out in Sprague-Dawley rats (300-325 g) with solutions of L-aspartic acid. The animals were injected intravenously (iv) via the tail vein with L-aspartic acid. Each animal received one injection of L-aspartic acid in normal saline at total dose equivalent of 0.00, 0.75, 1.50, 3.00, and 6.00 mg L-aspartic acid/kg body weight or orally by gavage at a dose equivalent of 0.00 or 60.0 mg/kg body weight. The animals were sacrificed by decapitation at 6 hours post injection and dissected to isolate the brain organs, which were frozen at −70° C. for subsequent analysis by Western immunoblots.
(§5) Each brain tissue was thawed and homogenized in a Down's homogenizer using ten volumes of homogenizer buffer (see, Adams et al., […], 77: 221-233 (2000); buffer as described in Adams et al., J. Leukoc. Biol., 62: 865-875 ([…])) to obtain a crude cytoplasmic fraction. The brain tissue homogenates were centrifuged (14,000×g for 5 minutes at 4° C.) to yield the supernatant purified cytoplasmic protein fractions for Western immunoblot analysis as described in Adams et al. (J. Cell. Biochem., 77: 221-233 (2000)). A 10 μg sample of each protein fraction was then separated by SDS polyacrylamide gel electrophoresis (SDS-PAGE) and analyzed for SOD and CAT content by Western blot assay as above.
(§6) Control for measurement of unstimulated levels of SOD were obtained from vehicle-only (i.e., no L aspartic acid), injected or gavaged rats that were sacrificed at 6 hours post injection. […] Standard quantities of each cytoplasmic fraction (10 μg) were loaded on a lane of a gel for electrophoretic separation and Western immunoblot analysis (Adams et al., J. Cell. Biochem., 77: 221-233 (2000)). The stained gels were photographed and scanned by laser densitometry to quantify intensities in comparison to enzyme levels for control vehicle treated rats.
(§7) The data are expressed as a fold increase relative to control animals that received vehicle only. Intravenous (i.v.) injections were administered as 0.3 ml in normal saline during five minutes. Oral doses were administered as a solution in 1 ml saline by gavage.

Sprague-Dawley rats = assay: In vivo observations of toxicity and behaviour after dosing; conditions: 60 mg/Kg oral, rat
Protocol: as §4
At 6 mg/Kg, upregulation of CAT became higher than SOD. The compound is also active orally, but in that case, a dose of 60 mg/Kg must be used in the rat to see an effect.

[3] = test system: primary rat cortical cultures; assay: Tissue culture properties of primary rat cortical cultures; assay type: cell-based; conditions: low doses of up to 10 ng/ml in culture
SOD [4] = assay: Upregulation of SOD in primary rat cortical cultures (Western immunoblot, laser densitometry); assay type: cell-based; conditions: for Upregulation (fold increase) SOD: 5 hours, relative to untreated control cultures
Protocol: as §1, §2, §3

CAT [5] = assay: In vivo upregulation of CAT in rat brain (Western immunoblot); set-up: species or system Sprague-Dawley rats; conditions: for Fold Upregulation of CAT: relative to vehicle
Protocol: as §4, §5, §6, §7

[6] = 0.75 mg/kg i.v., rat brain, 6 hours post injection
[7] = 1.50 mg/kg i.v., rat brain, 6 hours post injection
[8] = 3.00 mg/kg i.v., rat brain, 6 hours post injection
[9] = 6.00 mg/kg i.v., rat brain, 6 hours post injection
[10] = 60.00 mg/kg oral (gavage), rat brain, 6 hours

N[C@@H](CC(=O)O)C(=O)O [Aspartic Acid, L-aspartic acid]
Upregulation (fold increase) CAT (CAT [1]; 0.01 μg/ml): 1.0 fold increase
Upregulation (fold increase) CAT (CAT [1]; 0.13 μg/ml): 1.0 fold increase
CAT upregulation (CAT [1]; 1.3 μg/ml): upregulated
Upregulation (fold increase) CAT (CAT [1]; 1.30 μg/ml): 2.3 fold increase
Upregulation (fold increase) CAT (CAT [1]; 13.30 μg/ml): 3.7 fold increase
Fold Upregulation of SOD (SOD [2]; [6]): 1.0 fold
Fold Upregulation of SOD (SOD [2]; [7]): 1.0 fold
Fold Upregulation of SOD (SOD [2]; [8]): 1.3 fold
Fold Upregulation of SOD (SOD [2]; [9]): 1.3 fold
Fold Upregulation of SOD (SOD [2]; [10]): 2.9 fold
i.v. dose that must be injected before upregulation of SOD is observed (SOD [2]; i.v., rat brain): 3 mg/kg
oral dose that must be used to see an effect (SOD upregulation) (SOD [2]; oral, rat): 60 mg/kg
toxic effect (Sprague-Dawley rats): no toxic effect
effect on any aspects of tissue culture properties [3]: no effect
Upregulation (fold increase) SOD (SOD [4]; 0.01 μg/ml): 1.0 fold increase
SOD upregulation (SOD [4]; 130 ng/ml): upregulation of SOD
Upregulation (fold increase) SOD (SOD [4]; 0.13 μg/ml): 1.6 fold increase
SOD upregulation (SOD [4]; 1.3 μg/ml): upregulated
Upregulation (fold increase) SOD (SOD [4]; 1.30 μg/ml): 2.1 fold increase
SOD increase by Western blot (SOD [4]; 13.3 μg/ml): substantial increase
Upregulation (fold increase) SOD (SOD [4]; 13.30 μg/ml): 3.5 fold increase
effect on SOD upregulation (SOD [4]; low doses of up to 10 ng/ml in culture): no effect
Fold Upregulation of CAT (CAT [5]; [6]): 1.0 fold
Fold Upregulation of CAT (CAT [5]; [7]): 1.0 fold
Fold Upregulation of CAT (CAT [5]; [8]): 1.2 fold
Fold Upregulation of CAT (CAT [5]; [9]): 2.5 fold
Fold Upregulation of CAT (CAT [5]; [10]): 3.5 fold
i.v. dose that must be injected before upregulation of CAT is observed (CAT [5]; i.v., rat brain): 3 mg/kg
oral dose that must be used to see an effect (CAT upregulation) (CAT [5]; oral, rat): 60 mg/kg
